Entries after “also recorded” stand apart in the source; their conditions may differ.
Key:
[1] = target: T1, SaFrmB (Staphylococcus aureus, UniProt A0A0H3KFB7); assay: Glyoxalase II activity assay (DTNB coupled); format: biochemical; details: 1 mM substrate, 37°C, 412 nm
T1 construct: made in house; host or cells: E. coli BL21 (DE3)
T1 sequence (A0A0H3KFB7 1-253): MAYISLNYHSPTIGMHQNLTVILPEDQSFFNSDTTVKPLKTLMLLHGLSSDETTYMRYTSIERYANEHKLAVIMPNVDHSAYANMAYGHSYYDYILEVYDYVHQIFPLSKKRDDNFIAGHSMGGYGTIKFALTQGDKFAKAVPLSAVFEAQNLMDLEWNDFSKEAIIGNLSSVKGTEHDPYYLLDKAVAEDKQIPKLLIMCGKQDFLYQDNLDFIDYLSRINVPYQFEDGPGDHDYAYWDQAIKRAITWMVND
Procedure: (§1) Glyoxalase II activity was assessed as previously with minor changes ([Mikati et al., 2020]; [Stamp et al., 2010]). Briefly, reactions were mixed to form a final concentration of 25 mM Tris pH 7.5, 250 mM NaCl, 1 mM MnCl2, 10% glycerol, 200 µM 5,5’-dithiobis(2-nitrobenzoic acid) (DTNB, Sigma D8130), 1 mM D-lactoylglutathione (Sigma L7140), and 0.15–0.63 µg protein (130–550 nM GloB, 100–430 nM FrmB). Protein concentrations were varied to ensure the reaction was linear across protein concentrations. Reactions without D-lactoylglutathione were pre-incubated at 37°C for 10 min prior to assay initiation with the addition of substrate. Release of glutathione from D-lactoylglutathione was quantified spectrophotometrically at 37°C and 412 nm through the conversion of DTNB to TNB. Experiments were performed in triplicate with technical duplicates.

[2] = target: T2, SaGloB (Staphylococcus aureus, UniProt P0DY75); assay: Glyoxalase II activity assay (DTNB coupled); format: biochemical; details: 1 mM substrate, 37°C, 412 nm
T2 sequence (P0DY75 1-207): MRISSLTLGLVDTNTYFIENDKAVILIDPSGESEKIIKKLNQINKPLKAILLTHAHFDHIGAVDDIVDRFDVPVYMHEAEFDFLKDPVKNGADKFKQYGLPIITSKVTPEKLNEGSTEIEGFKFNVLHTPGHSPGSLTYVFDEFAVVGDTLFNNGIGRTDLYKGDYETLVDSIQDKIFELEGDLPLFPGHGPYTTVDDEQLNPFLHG
Procedure: as §1

[3] = target: T3, FrmB (Staphylococcus aureus, UniProt A0A0H3KFB7); assay: 4-Nitrophenyl ester substrate activity assay; format: biochemical; details: 1 µM protein, 1 mM substrate, 37°C, A405
T3 construct: made in house; host or cells: E. coli BL21 (DE3)
Procedure: (§2) 4-Nitrophenyl substrate-specific activity was determined in 50 µL reactions containing 25 mM Tris pH 7.5, 250 mM NaCl, 1 mM MnCl2, 10% glycerol, 1 µM protein, and 1 mM 4-nitrophenyl substrate. The tested substrates, 4-nitrophenyl acetate (Sigma, N8130), 4-nitrophenyl butyrate (Sigma N9876), and 4-nitrophenyl trimethylacetate (Sigma 135046), were resuspended in acetonitrile at 100 mM. Reactions without 4-nitrophenyl substrate were preincubated at 37°C for 10 min prior to assay initiation via substrate addition. Conversion of 4-nitrophenyl substrates to 4-nitrophenol was tracked photometrically at 37°C and A405nm. Experiments were performed in triplicate with technical duplicates.

[4] = tested on: GloB; assay: 4-Nitrophenyl ester substrate activity assay; format: biochemical, Staphylococcus aureus; details: 1 µM protein, 1 mM substrate, 37°C, A405
Procedure: as §2

[5] = target: T1, SaFrmB; assay: Esterase substrate specificity, fluorogenic SAR library kinetics; format: biochemical; details: for Km: SaFrmB 15 µg/mL, pH 7.5, 37°C; for In vitro activity (catalytic efficiency) for FrmB, in words: fluorogenic ester substrate
Procedure: (§3) Kinetic measurements were performed according to [White et al., 2018] with minor variation. Lyophilized human and mouse sera were resuspended according to manufacturer instructions in highly pure, filtered water at protein concentrations of 85 mg/mL and 70 mg/mL, respectively. One milliliter of resuspended serum was added to a 24 mL mastermix for a final concentration of 31.25 mM Tris pH 7.5, 312.5 mM NaCl, 1.25 mM MgCl2, 12.5% glycerol, and 3.4 mg/mL or 2.8 mg/mL protein for human and mouse serum, respectively. For purified proteins, 5 mL of a 75 µg/mL stock was added to yield a 20 mL mastermix containing 31.25 mM Tris pH 7.5, 312.5 mM NaCl, 1.25 mM MgCl2, 12.5% glycerol, and 18.75 µg/mL protein. Mastermix was stored on ice when not in use. Twenty microliters of mastermix was transferred to a black, 96-well half area microplate (Corning, CLS3993) and prewarmed at 37°C. Fluorogenic substrates were prepared as 10 mM stock solutions in 100% DMSO and were diluted in water to a starting concentration of 500 µM. Enzyme catalyzed substrate hydrolysis was initiated by addition of 5 µL substrate dilution in technical duplicate to the prewarmed serum or protein solution. Final assay concentrations were as follows: 25 mM Tris pH 7.5, 250 mM NaCl, 1 mM MgCl2, 10% glycerol, and protein at a concentration of 2.72 mg/mL (human serum), 2.24 mg/mL (mouse serum), or 15 µg/mL (FrmB, GloB). The resulting change in fluorescence (λex = 485 nm, λem = 520 nm) was followed for 15 min at 37°C, collecting data every 30 s on a FLUOstar Omega microplate reader (BMG Labtech). Fluorescence measurements were converted to molar concentrations using a fluorescein standard curve (2.5 nmol–0.6 pmol). The initial rates of reaction were measured three independent times with two technical replicates per measurement and fit to a line using GraphPad Prism (GraphPad Software, La Jolla, CA). Initial rates of reaction were plotted versus the concentration of substrate and fit to a standard Michaelis–Menten equation (v = Vmax[S]/(Km + [S])), yielding estimates of Vmax and Km. Values for kcat and kcat/Km were calculated based on amount of enzyme added when purified enzymes were used.

[6] = target: T2, SaGloB; assay: as above; format: biochemical; details: for kcat/kuncat / Km: SaGloB; for kcat/kuncat: normalised to uncatalysed hydrolysis rate; for In vitro activity (catalytic efficiency) for GloB, in words / Km: fluorogenic ester substrate
Procedure: as §3

[7] = tested on: human sera; assay: Esterase substrate specificity, fluorogenic SAR library kinetics in serum; format: in vitro ADME
Procedure: as §3

[8] = tested on: mouse sera; assay: as above; format: in vitro ADME
Procedure: as §3

[9] = tested on: S. aureus; assay: Microfluidics live cell imaging of pro-fluorescent substrate activation; format: cell-based, Staphylococcus aureus; details: 10 µM pro-fluorescent substrate, 37°C; for Intracellular activation (fluorescence) in live S. aureus, in words: 30 min of observation
Procedure: Overnight cultures of S. aureus were grown in LB media, back diluted 1:500, and grown to early exponential phase (OD600 0.1–0.15), then washed in 1× PBS, and loaded on a bacterial CellASIC ONIX2 microfluidic plate. Prior to cell loading, the microfluidics plate lines were flushed with 1× PBS + 1% DMSO or 10 µM fluorescent pro-substrate in 1× PBS + 1% DMSO, and the plate was preincubated at 37°C. The microfluidics plate was loaded onto a Nikon Ti-E inverted microscope (Nikon Instruments, Inc) equipped with a 100× Plan N (N.A. = 1.45) Ph3 objective, SOLA SE Light Engine (Lumencor), heated control chamber (OKO Labs), and an ORCA-Flash4.0 sCMOS camera (Hammamatsu Photonics). The GFP filter set was purchased from Chroma Technology Corporation. Cells were loaded into the chamber until a single field of view contained 50–150 cells or cell clusters. […] Images were acquired every two min for a total of 44 min, and all experiments were undertaken at 37°C. The phase-contrast exposure time was kept constant at 200 ms, and the fluorescent channel exposure time was kept constant at 500 ms. For fluorescent images, the gain remained constant across all experiments. Image capture and analysis was performed using Nikon Elements Advanced Research software. Individual cells or clusters of cells were auto detected in the fluorescent channel using the intrinsic background fluorescence of each cell. […] Fluorescent intensity for each individual cell or cluster of cells was measured through the duration of the experiment and normalized to the area of the identified cell to yield the mean fluorescent intensity. Background cell autofluorescence was corrected by subtracting the average fluorescence across all identified objects from t = 0 through t = 10. Each experiment was performed in duplicate, with >50 individual cells or clusters analyzed in each experiment.

## CC(O)C(=O)SCC(NC(=O)CCC(N)C(=O)O)C(=O)NCC(=O)O (stereo not drawn) [S-lactoylglutathione]
[1]
  Glyoxalase II activity (hydrolysis of substrate), in words: lacks appreciable glyoxalase activity
[2]
  Glyoxalase II activity (hydrolysis of substrate), in words: specific activity comparable to previously characterized microbial type II glyoxalases

## CC(=O)Oc1ccc([N+](=O)[O-])cc1 [4-nitrophenyl acetate]
[3]
  Hydrolysis of 4-nitrophenyl ester by FrmB, in words: modest activity
[4]
  Hydrolysis of 4-nitrophenyl ester by GloB, in words: no detectable activity

## CCOCCC(=O)OCOc1ccc2c(c1)Oc1cc(OCOC(=O)CCOCC)ccc1C21OC(=O)c2ccccc21 [5O]
[5]
  Km: > 50 µM
  In vitro activity (catalytic efficiency) for FrmB, in words: poor activity
[6]
  kcat/kuncat: 17.0 103
  In vitro activity (catalytic efficiency) for GloB, in words: moderate activity
[7]
  Km: 35.4 µM
  Vmax: 2.25 pmol*min-1*mg sera-1
[8]
  Km: > 50 µM
[9]
  Intracellular activation (fluorescence) in live S. aureus, in words: never appreciably activates

## COCC(=O)OCOc1ccc2c(c1)Oc1cc(OCOC(=O)COC)ccc1C21OC(=O)c2ccccc21 [1O]
[5]; SaFrmB
  kcat/kuncat: 1.34 103
[5]
  In vitro activity (catalytic efficiency) for FrmB, in words: high activity; also recorded: highest catalytic efficiency substrate
[6]
  kcat/kuncat: 38.6 103
  In vitro activity (catalytic efficiency) for GloB, in words: high activity; also recorded: highest catalytic efficiency substrate
[7]
  Km: 64.1 µM
  Vmax: 68.6 pmol*min-1*mg sera-1
[8]
  Km: > 50 µM
[9]; images every 2 min
  Time to intracellular fluorescence saturation: < 2 min

## CC(C)(C)C(=O)Oc1ccc([N+](=O)[O-])cc1 [4-nitrophenyl trimethylacetate]
[3]
  Hydrolysis of 4-nitrophenyl ester by FrmB, in words: no activity
[4]
  Hydrolysis of 4-nitrophenyl ester by GloB, in words: no detectable activity

## CCC(CC)C(=O)OCOc1ccc2c(c1)Oc1cc(OCOC(=O)C(CC)CC)ccc1C21OC(=O)c2ccccc21 [9C]
[5]
  Km: > 50 µM
  In vitro activity (catalytic efficiency) for FrmB, in words: poor activity
[6]
  Km: > 50 µM
  In vitro activity (catalytic efficiency) for GloB, in words: poor activity
[7]
  Km: > 50 µM
[8]
  Km: 12.3 µM
  Vmax: 3.18 pmol*min-1*mg sera-1
[9]
  Intracellular activation (fluorescence) in live S. aureus, in words: never appreciably activates

## CCCCCC(=O)OCOc1ccc2c(c1)Oc1cc(OCOC(=O)CCCCC)ccc1C21OC(=O)c2ccccc21 [3C]
[5]
  Km: > 50 µM
  In vitro activity (catalytic efficiency) for FrmB, in words: moderate activity
[6]
  Km: > 50 µM
  In vitro activity (catalytic efficiency) for GloB, in words: moderate activity
[7]
  Km: > 50 µM
[8]
  Km: > 50 µM
[9]
  Intracellular activation (fluorescence) in live S. aureus, in words: slowly activates over the duration of the experiment

## CCCC(=O)Oc1ccc([N+](=O)[O-])cc1 [4-nitrophenyl butyrate]
[3]
  Hydrolysis of 4-nitrophenyl ester by FrmB, in words: modest activity
[4]
  Hydrolysis of 4-nitrophenyl ester by GloB, in words: no detectable activity

Reference: article PMC8318587, “Structure-guided microbial targeting of antistaphylococcal prodrugs” (eLife, 2021)
